One block for each compound: values may come before it.
Assays:
OtCE15A [1] = biological target: T1, OtCE15A (Opitutus terrae, UniProt B1ZMF4); experiment: X-ray crystal structure; format: binding
T1 construct: gene Oter_0116; recombinant in E. coli BL21 (DE3), purified as in earlier work; catalytic Ser-267, His-408, Glu-290, Asp-356

OtCE15A [2] = biological target: T1, OtCE15A; experiment: continuous coupled esterase assay (K-URONIC kit); format: biochemical
Text: (§1) continuous coupled esterase assay (K-URONIC kit) on OtCE15A

OtCE15A [3] = biological target: T2, OtCE15A (Opitutus terrae, UniProt B1ZMF4, L269Y); experiment: continuous coupled esterase assay (K-URONIC kit); format: biochemical; settings: substrate inhibition constant
T2 construct: gene Oter_0116; recombinant in E. coli BL21 (DE3), purified as in earlier work; catalytic Ser-267, His-408, Glu-290, Asp-356
Text: as §1

OtCE15A [4] = biological target: T1, OtCE15A; experiment: inhibition of BnzGlcA hydrolysis, coupled continuous assay (K-URONIC kit); format: biochemical; settings: BnzGlcA as substrate (3.5 mM or 350 μM)
OtCE15A [5] = biological target: T1, OtCE15A; experiment: as above; format: biochemical; settings: BnzGlcA as substrate (3.5 mM or 350 μM); remark: listed apart in the source
OtCE15A [6] = biological target: T1, OtCE15A; experiment: as above; format: biochemical; settings: competitive; BnzGlcA as substrate

T1 sequence (B1ZMF4 entry or part of it): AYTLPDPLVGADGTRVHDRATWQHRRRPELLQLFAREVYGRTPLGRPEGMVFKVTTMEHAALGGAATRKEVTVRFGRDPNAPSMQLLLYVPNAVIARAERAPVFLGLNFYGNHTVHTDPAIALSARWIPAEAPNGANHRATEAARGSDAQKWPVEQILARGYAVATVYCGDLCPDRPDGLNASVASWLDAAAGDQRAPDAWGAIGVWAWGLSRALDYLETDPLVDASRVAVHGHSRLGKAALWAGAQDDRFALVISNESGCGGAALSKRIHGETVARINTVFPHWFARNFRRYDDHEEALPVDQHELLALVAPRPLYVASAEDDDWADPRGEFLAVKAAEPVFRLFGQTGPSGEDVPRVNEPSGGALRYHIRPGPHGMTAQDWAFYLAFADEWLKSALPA
T2 sequence (B1ZMF4 entry or part of it L269Y): as the sequence (B1ZMF4 entry or part of it) above, with L237Y counted along it

Structure (SMILES): O=C(O)[C@H]1OC(O)[C@H](O)[C@@H](O)[C@@H]1O (some centres unmarked) [GlcA, glucuronate]
- X-ray crystal structure (OtCE15A [1]; active site): We determined the structure of the WT OtCE15A in complex with the product GlcA

Structure (SMILES): COC(=O)[C@H]1OC(O)[C@H](O)[C@@H](O)[C@@H]1O (some centres unmarked) [MeGlcA, methyl glucuronoate]
- Ksi (OtCE15A [3]): 34.5 ± 11.9 mM

Structure (SMILES): CO[C@H]1[C@H](O)[C@@H](O)[C@@H](O[C@H]2[C@H](O[C@@H]3COC(O)[C@H](O)[C@H]3O)OC[C@@H](O[C@@H]3OC[C@@H](O)[C@H](O)[C@H]3O)[C@@H]2O)O[C@@H]1C(=O)O (stereo partly drawn) [XUX, 2^3-(4-O-methyl-α-D-glucuronyl)-xylotriose]
- X-ray crystal structure (OtCE15A [1]; active site, no variant named, taken as wild type): OtCE15A in complex with the glucuronoxylan oligosaccharide XUX (PDB code 6T0I)

Further lines, with some results ahead:

- Km (OtCE15A [2]): 5.31 ± 0.51 mM
Structure (SMILES): COC(=O)[C@H]1OC(O)[C@H](O)[C@@H](O)[C@H]1O (some centres unmarked) [MeGalA, methyl galacturonoate]

- % inhibition at up to 250 mM (OtCE15A [4]): < 10%
Structure (SMILES): OC[C@H]1OC(O)[C@H](O)[C@@H](O)[C@@H]1O (some centres unmarked) [glucose]

- % reduction of activity at 100 mM (OtCE15A [5]): ~ 50%
Structure (SMILES): OC1OC[C@@H](O[C@@H]2OC[C@@H](O)[C@H](O)[C@H]2O)[C@H](O)[C@H]1O (some centres unmarked) [xylobiose]
- X-ray crystal structure (OtCE15A [1]; active site and second site about 25 Å away, no variant named, taken as wild type): showing the two xylobiose-binding sites (PDB code 6SYU)

- Ki (OtCE15A [6]): 48.1 mM
Structure (SMILES): OC1OC[C@@H](O)[C@H](O)[C@H]1O (some centres unmarked) [xylose]

— publication PMC6937553, “Structural and biochemical studies of the glucuronoyl esterase OtCE15A illuminate its interaction with lignocellulosic components” (The Journal of Biological Chemistry, 2019)
